Experimental data reported in US9238637B2, “Stable polymorphic forms of compound as hypoxia mimetics, and uses thereof” (BEIJING BETTA PHARMACEUTICALS CO., LTD, priority 2011, dated 2016).

Assays:
Erythropoietin (EPO) = experiment: Determination of erythropoietin (EPO) induction in normal mice; format: in vivo; settings: male C57BL/6 mice, oral suspension in 0.5% CMC, 60 mg/kg, serum 6 hours after dosing
Method: Eight-week-old male C57BL/6 mice were dosed orally with a suspension of one crystal form of the compound in 0.5% CMC at 20, 60 and 100 mg/kg. Blood samples were obtained from the orbital venous plexus 6 hours after dosing and serum was collected (see also, Robinson A, et al., Gastroenterology. 2008, 134:145-55; Hsieh M M, et al., Blood. 2007, 110:2140-7). Samples were analyzed for EPO by electrochemiluminescence-based immunoassay (MSD) according to manufacturer's instructions. The inducted EPO when the Crystalline Form III in this invention was used in suspension was determined to be above 35 folds over that of the vehicle group without induction at the dosage of 60 mg/kg.

[1] = test system: adenine-induced renal anemic rats; experiment: Efficacy studies in adenine-induced renal anemic rats; format: in vivo, Wistar rats
Method: Six-week-old male Wistar rats were divided to the control group and treatment groups. After given the standard chow for 10 days, the control group continued on the standard chow while the treatment groups were given the standard chow with the addition of 0.75% adenine for 30 days when the treatment groups developed anemia. All the groups were then switched back to the standard chow, and the treatment groups were dosed orally with vehicle or a suspension of one crystal form of the compound in 0.5% CMC-Na at 20, 40 or 80 mg/kg once a day for 4 weeks. Blood samples were obtained from the orbital venous plexus on days 0, 5, 12, 19 and 27. An Automated Hematology Analyzer MEK-6318K was used to determine hematological parameters such as erythrocyte counts (RBC), hemoglobin concentration (HGB), hematocrit value (HCT).

[2] = Stability determination of crystal forms (slurry in ethyl acetate, XRPD); format: physicochemical; settings: 72 hrs
Method: (§1) 100 mg of the compound of Formula I prepared from the method disclosed in Example 1 above (mixed crystal forms) was added into 2 mL of Ethyl Acetate and stirred at room temperature for 72 hrs. After centrifugation and drying, the resulted crystal form was determined by XRPD to be purely the Crystalline Form III.
as §1, with “50 mg” for “100 mg”, “into 1” for “into 2”, “at 50° C.” for “at room temperature”

full length PHD2 = molecular target: T1, full length PHD2 (Homo sapiens, UniProt Q9GZT9); experiment: Assay of HIF-PHD2 enzyme activity (homogeneous TR-FRET); format: biochemical; settings: 600 nM full length PHD2, 0.2 μM 2-oxoglutarate, 0.5 μM HIF-1α peptide, 2 hrs room temperature
T1 construct: containing 600 nM full length PHD2
T1 sequence (Q9GZT9 whole entry, species assumed): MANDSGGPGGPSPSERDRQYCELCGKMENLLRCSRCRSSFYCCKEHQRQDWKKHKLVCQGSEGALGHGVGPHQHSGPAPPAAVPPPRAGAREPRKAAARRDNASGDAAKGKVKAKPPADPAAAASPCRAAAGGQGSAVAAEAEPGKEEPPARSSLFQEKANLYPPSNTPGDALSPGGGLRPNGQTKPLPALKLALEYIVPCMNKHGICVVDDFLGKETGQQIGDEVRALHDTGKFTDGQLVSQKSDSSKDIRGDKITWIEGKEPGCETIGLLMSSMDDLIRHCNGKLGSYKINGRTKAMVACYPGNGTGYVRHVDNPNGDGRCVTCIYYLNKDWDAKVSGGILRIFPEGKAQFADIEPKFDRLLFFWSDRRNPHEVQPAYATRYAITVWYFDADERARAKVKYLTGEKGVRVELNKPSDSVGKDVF
Method: HIF-PHD2 activity was measured using homogeneous TR-FRET technology (see also, US2008/004817; Dao J H et al., Anal Biochem. 2009, 384:213-23). To each well of a ½Area 96-well plate was added 2 μL DMSO solution of test compound and 40 μL of assay buffer (50 mM Tris PH7.4/0.01% Tween-20/0.1 mg/ml BSA/1 mM Sodium ascorbate/20 μg/ml Catalase/10 μM FeSO4) containing 600 nM full length PHD2. After a 30 min preincubation at room temperature, the enzymatic reactions were initiated by the addition of 8 μL of substrates (final concentrations of 0.2 μM 2-oxoglutarate and 0.5 μM HIF-1α peptide biotinyl-DLDLEMLAPYIPMDDDFQL). After 2 hrs. at room temperature, the reactions were terminated and signals were developed by the addition of a 50 μL quench/detection mix to a final concentration of 1 mM ortho-phenanthroline, 0.1 mM EDTA, 0.5 nM anti-(His)6LANCE reagent, 100 nM AF647-labeled Streptavidin, and 30 nM (His)6-VHL-elonginB-elonginC complex. The ratio of time resolved fluorescence signals at 665 and 620 nm was determined, and percent inhibition was calculated relative to an uninhibited control sample run in parallel.

| SMILES | inducted EPO over that of the vehicle group (Erythropoietin (EPO)) | HGB ([1]; 20 mg/kg oral once a day, Day 0) [g/L] | HGB ([1]; 20 mg/kg oral once a day, Day 5) [g/L] | HGB ([1]; 20 mg/kg oral once a day, Day 12) [g/L] | HGB ([1]; 20 mg/kg oral once a day, Day 19) [g/L] | HGB ([1]; 20 mg/kg oral once a day, Day 27) [g/L] | HGB ([1]; 40 mg/kg oral once a day, Day 0) [g/L] | HGB ([1]; 40 mg/kg oral once a day, Day 5) [g/L] | HGB ([1]; 40 mg/kg oral once a day, Day 12) [g/L] | HGB ([1]; 40 mg/kg oral once a day, Day 19) [g/L] | HGB ([1]; 40 mg/kg oral once a day, Day 27) [g/L] | HGB ([1]; 80 mg/kg oral once a day, Day 0) [g/L] | HGB ([1]; 80 mg/kg oral once a day, Day 5) [g/L] | HGB ([1]; 80 mg/kg oral once a day, Day 12) [g/L] | HGB ([1]; 80 mg/kg oral once a day, Day 19) [g/L] | HGB ([1]; 80 mg/kg oral once a day, Day 27) [g/L] | effect on HGB levels (in words) ([1]; 20, 40 or 80 mg/kg oral once a day for 4 weeks) | thermodynamic stability of crystal form ([2]; 50° C.) | thermodynamic stability of crystal form ([2]; room temperature) | IC50 (full length PHD2) [µM] |
| --- | --- | --- | --- | --- | --- | --- | --- | --- | --- | --- | --- | --- | --- | --- | --- | --- | --- | --- | --- | --- |
| Cc1cccc(-c2cccc3c(O)c(C(=O)NCC(=O)O)c(=O)oc23)c1 [Crystalline Form III, N-[(4-hydroxy-2-oxo-8-(3-methyl-phenyl)-2H-3-coloralkenyl)carbonyl]glycine] | above 35 folds | 88.0 | 60.7 | 64.3 | 73.3 | 90.7 | 87.4 | 69.4 | 87.2 | 89.7 | 103.6 | 86.8 | 76.7 | 111.0 | 122.0 | 139.0 | improved the HGB levels in the animals and corrected them toward normal | thermodynamically the more stable crystal form | thermodynamically the more stable crystal form |  |
| Cc1cccc(-c2cccc3c(O)c(C(=O)NCC(=O)O)c(=O)oc23)c1 [compound of Formula I, N-[(4-hydroxy-2-oxo-8-(3-methyl-phenyl)-2H-3-coloralkenyl)carbonyl]glycine] |  |  |  |  |  |  |  |  |  |  |  |  |  |  |  |  |  |  |  | ~0.15 |
